# Reference: patent publication US8741948B2, “Oral antimicrobial pharmaceutical compositions” (Cosmo Technologies Ltd., priority 2004, dated 2014)
# Columns and labels:
# Assay in all cases: MIC evaluation on pathogenic bacterial strains
# Type in all cases: cell-based
# [1] = system: Enterobacter cloacae (ATCC 17446431)
# From the text: (§1) In particular, the efficacy of rifamicin SV was verified by means of an evaluation of the MIC (Minimum Inhibiting Concentration) on specific pathogenic bacterial strains, such as, for example, Escherichia coli, […], Proteus vulgaris, Pseudomonas aeruginosa, Salmonella typhi and Enterobacter cloacae as shown in the following Table A.
# [2] = system: Enterobacter faecalis (ATCC 29212)
# From the text: as §1
# [3] = system: Escherichia coli (ATCC 30218)
# From the text: as §1
# [4] = system: Proteus vulgaris (ATCC 13315)
# From the text: as §1
# [5] = system: Pseudomonas aeruginosa (ATCC 27853)
# From the text: as §1
# [6] = system: Salmonella typhi (ATCC 13331)
# From the text: as §1
# [7] = system: Staphylococcus aureus (ATCC 25213)
# From the text: as §1
substance,measurement,setting,value
rifamicin SV,MIC (Minimum Inhibiting Concentration),[1],>400 µg/mL
same,MIC (Minimum Inhibiting Concentration),[2],25 µg/mL
same,MIC (Minimum Inhibiting Concentration),[3],400 µg/mL
same,MIC (Minimum Inhibiting Concentration),[4],400 µg/mL
same,MIC (Minimum Inhibiting Concentration),[5],>400 µg/mL
same,MIC (Minimum Inhibiting Concentration),[6],>400 µg/mL
same,MIC (Minimum Inhibiting Concentration),[7],<0.4 µg/mL
